{
  "source": "patent US10519176B2",
  "about": "“Crystalline forms” (GRUNENTHAL GMBH, priority 2010, dated 2019)",
  "origin": "cited, not measured here",
  "key": {"[1]": {"conditions": "according to FDA SBA"}, "[2]": {"conditions": "in vivo"}, "[3]": {"conditions": "according to FDA SBA", "remark": "listed apart in the source"}},
  "data": [
    {"smiles": "O=P(O)(O)C(O)(Cn1ccnc1)P(=O)(O)O", "note": "[Zoledronic acid, (1-hydroxy-2-imidazol-1-yl-1-phosphono-ethyl)phosphonic acid]", "values": [
      {"measurement": "permeability in the GI tract", "setting": "[1]", "result": "poor permeability"},
      {"measurement": "solubility in 0.1 N HCl solution", "setting": "0.1 N HCl solution", "result": "sparingly soluble"},
      {"measurement": "solubility in 0.1 N NaOH", "setting": "0.1 N NaOH", "result": "freely soluble"},
      {"measurement": "solubility in various organic solvents", "setting": "various organic solvents", "result": "practically insoluble"},
      {"measurement": "solubility in water", "setting": "water", "result": "sparingly soluble"},
      {"measurement": "gastric and intestinal irritations", "setting": "[2]", "result": "severe gastric and intestinal irritations"},
      {"measurement": "oral bioavailability", "setting": "[3]", "result": "approximately 1%"}
    ]}
  ]
}
